Assay results as given in ChEMBL document CHEMBL6092122, “Nonenzymatic Sequestering of Formaldehyde into the Antibiotic Methylene-Bridged Dimer Phaeochromycin F by Streptomyces sp. OUCMDZ-4982 as a Possible Multipronged Chemical Defense Mechanism” (J Nat Prod, 2024).
≈ marks a conversion by molar mass, not a printed value. Calls of active or inactive are those of the source. The rule behind the calls is not given here.

Key:
[1] = tested on: Staphylococcus aureus; test: Antibacterial activity against Staphylococcus aureus ATCC 43300 incubated for 24 hrs by microdilution method; type: functional
[2] = tested on: Staphylococcus aureus; test: Antibacterial activity against methicillin-resistant Staphylococcus aureus ATCC 43300 incubated for 24 hrs by microdilution method; type: functional
[3] = tested on: Pseudomonas aeruginosa; test: Antibacterial activity against Pseudomonas aeruginosa ATCC 10145 incubated for 24 hrs by microdilution method; type: functional, organism-based
[4] = tested on: Escherichia coli; test: Antibacterial activity against Escherichia coli ATCC 11175 incubated for 24 hrs by microdilution method; type: functional, organism-based
[5] = tested on: Candida albicans; test: Antifungal activity against Candida albicans ATCC 10231 incubated for 24 hrs by microdilution method; type: functional, organism-based
[6] = tested on: Nakaseomyces glabratus; test: Antifungal activity against Candida glabrata ATCC 2001 incubated for 24 hrs by microdilution method; type: functional, organism-based
[7] = tested on: Staphylococcus aureus; test: Antibacterial activity against Staphylococcus aureus ATCC 6538 incubated for 24 hrs by microdilution method; type: functional
[8] = tested on: Staphylococcus aureus; test: Bactericidal activity against Staphylococcus aureus ATCC 6538 incubated for 24 hrs by microdilution method; type: functional
[9] = tested on: Staphylococcus aureus; test: Bactericidal activity against Staphylococcus aureus ATCC 43300 incubated for 24 hrs by microdilution method; type: functional
[10] = tested on: Bacillus subtilis; test: Antibacterial activity against Bacillus subtilis ATCC 6051 incubated for 24 hrs by microdilution method; type: functional
[11] = tested on: Bacillus subtilis; test: Bactericidal activity against Bacillus subtilis ATCC 6051 incubated for 24 hrs by microdilution method; type: functional
[12] = Drug metabolism in Staphylococcus aureus ATCC 6538 assessed as reduction in formaldehyde content incubated for 1 hr by LC-MS analysis; type: ADME
[13] = Drug metabolism in Staphylococcus aureus ATCC 6538 assessed as reduction in 5-((4-hydroxy-2-oxo-2H-pyran-6-yl)methyl)-2-methyl-4H-chromen-4-one content incubated for 1 hr by LC-MS analysis; type: ADME
[14] = tested on: Staphylococcus aureus; test: Bacteriostatic activity against methicillin-resistant Staphylococcus aureus ATCC 43300 assessed as reduction in bacterial colonies at 2 to 8 times MIC measured after 24 hrs by time kill assay; type: functional, organism-based
[15] = tested on: Staphylococcus aureus; test: Induction of drug resistance in Staphylococcus aureus ATCC 6538 assessed as increase in MIC measured after 20 passages incubated for 24 hrs; type: functional, organism-based
[16] = tested on: Staphylococcus aureus; test: Antibacterial activity against Staphylococcus aureus ATCC 6538 in absence of HCHO by microdilution method; type: functional
[17] = tested on: Staphylococcus aureus; test: Antibacterial activity against methicillin-resistant Staphylococcus aureus ATCC 43300 in absence of HCHO by microdilution method; type: functional
[18] = tested on: Streptomyces sp.; test: Protection against formaldehyde-induced toxicity in Streptomyces sp. OUCMDZ-4982 cultured in Gauze medium assessed as inhibition of bacterial growth incubated for 1 hr; type: functional, organism-based
[19] = tested on: Streptomyces sp.; test: Protection against formaldehyde-induced toxicity in Streptomyces sp. OUCMDZ-4982 cultured in A1 medium assessed as decrease in bacterial growth incubated for 1 hr; type: functional, organism-based
[20] = tested on: Streptomyces sp.; test: Protection against formaldehyde-induced toxicity in Streptomyces sp. OUCMDZ-4982 cultured in Gauze medium assessed as decrease in bacterial growth incubated for 1 hr; type: functional, organism-based
[21] = Drug metabolism in Staphylococcus aureus ATCC 6538 assessed as 3,3-methylenebis(4-hydroxy-6-methyl-2H-pyran-2-one) formation in presence of 2266E medium by HPLC analysis; type: ADME
[22] = tested on: Streptomyces sp.; test: Protection against formaldehyde-induced toxicity in Streptomyces sp. OUCMDZ-4982 cultured in Gauze medium; type: functional, organism-based
[23] = Drug metabolism in Staphylococcus aureus ATCC 6538 assessed as phaeochromycinF formation incubated for 1 hr by LC-MS analysis; type: ADME
[24] = Drug metabolism in Bacillus subtilis ATCC 6051 assessed as phaeochromycinF formation incubated for 1 hr by LC-MS analysis; type: ADME
[25] = tested on: Staphylococcus aureus; test: Antibiotic activity against Staphylococcus aureus ATCC 6538 assessed as compound dimer phaeochromycinF mediated reduction in bacterial growth in LB medium measured upto 8 days; type: functional, organism-based; settings: time <= 8.0 day
[26] = tested on: Bacillus subtilis; test: Antibiotic activity against Bacillus subtilis ATCC 6051 assessed as compound dimer phaeochromycinF mediated reduction in bacterial growth in LB medium measured upto 8 days; type: functional, organism-based; settings: time <= 8.0 day

Question: With `CN(C)c1cc(N2CN(C(C)(C)C)CC2=O)c(O)c2c1C[C@H]1C[C@H]3[C@H](N(C)C)C(O)=C(C(N)=O)C(=O)[C@@]3(O)C(O)=C1C2=O` (single isomer, unassigned) as the compound, how does the MIC [1] read?
Answer: 1 µg/mL (≈ 1.67 µM)

Question: And the MIC [2]?
Answer: 32 µg/mL (≈ 53.5 µM)

Question: What does the source list for `CC(=O)c1c(O)cccc1Cc1cc(O)c(Cc2c(O)cc(Cc3cccc4oc(C)cc(=O)c34)oc2=O)c(=O)o1`?
Answer: Activity [3]: inactive; Activity [4]: inactive; Activity [5]: inactive; Activity [6]: inactive

Question: With `Cc1cc(=O)c2c(Cc3cc(O)c([C@H]4c5c(cc(Cc6cccc7oc(C)cc(=O)c67)oc5=O)O[C@H]4CC(=O)O)c(=O)o3)cccc2o1` as the compound, how does the Activity [3] read?
Answer: inactive

Question: What about the Activity [4] of the same compound?
Answer: inactive

Question: What about the Activity [5] of the same compound?
Answer: inactive

Question: And the Activity [6]?
Answer: inactive

Question: With `Cc1cc(=O)c2c(Cc3cc(O)c(Cc4c(O)cc(Cc5cccc6oc(C)cc(=O)c56)oc4=O)c(=O)o3)cccc2o1` as the compound, how does the MIC [7] read?
Answer: 1 µg/mL (≈ 1.72 µM)

Question: What about the MBC [8] of the same compound?
Answer: 4 µg/mL (≈ 6.89 µM)

Question: What about the MIC [1] of the same compound?
Answer: 2 µg/mL (≈ 3.45 µM)

Question: What about the MBC [9] of the same compound?
Answer: 8 µg/mL (≈ 13.8 µM)

Question: And the MIC [10]?
Answer: 0.5 µg/mL (≈ 0.861 µM)

Question: And the MBC [11]?
Answer: 1 µg/mL (≈ 1.72 µM)

Question: What about the Drug metabolism [12] of the same compound?
Answer: metabolite_notdetected

Question: What about the Drug metabolism [13] of the same compound?
Answer: metabolite_notdetected

Question: What about the Activity [3] of the same compound?
Answer: inactive

Question: What about the Activity [4] of the same compound?
Answer: inactive

Question: And the Activity [5]?
Answer: inactive

Question: What about the Activity [6] of the same compound?
Answer: inactive

Question: What about the Activity [14] of the same compound?
Answer: Active

Question: What about the Activity [15] of the same compound?
Answer: inactive

Question: With `CCOC(=O)CC=C(c1c(O)cc(C)oc1=O)c1c(O)cc(C)oc1=O` as the compound, how does the Activity [3] read?
Answer: inactive

Question: And the Activity [4]?
Answer: inactive

Question: What about the Activity [5] of the same compound?
Answer: inactive

Question: What about the Activity [6] of the same compound?
Answer: inactive

Question: For `CC(C)C[C@@H]1C(=O)N([C@H]2C(=O)N[C@@H](CC(N)=O)C(=O)N[C@H]3C(=O)N[C@H]4C(=O)N[C@H](C(=O)N[C@H](C(=O)O)c5cc(O)cc(O)c5-c5cc4ccc5O)[C@H](O)c4ccc(c(Cl)c4)Oc4cc3cc(c4O[C@@H]3O[C@H](CO)[C@@H](O)[C@H](O)[C@H]3O[C@H]3C[C@](C)(N)[C@H](O)[C@H](C)O3)Oc3ccc(cc3Cl)[C@H]2O)[C@H](C)N1C`, which MIC [16] is on record?
Answer: 64 µg/mL (≈ 43.4 µM)

Question: What about the MIC [17] of the same compound?
Answer: 32 µg/mL (≈ 21.7 µM)

Question: With `Cc1cc(O)cc(=O)o1` [4-HYDROXY-6-METHYLPYRAN-2-ONE] as the compound, how does the Activity [18] read?
Answer: Active

Question: What about the Activity [19] of the same compound?
Answer: Active

Question: And the Activity [20]?
Answer: inactive

Question: What about the Drug metabolism [21] of the same compound?
Answer: metabolite_detected

Question: What does the source list for `Cc1cc(=O)c2c(Cc3cc(O)cc(=O)o3)cccc2o1`?
Answer: Activity [22]: Active; Drug metabolism [23]: metabolite_detected; Drug metabolism [24]: metabolite_detected; Activity [25]: Active; Activity [26]: inactive; Activity [3]: inactive; Activity [4]: inactive; Activity [5]: inactive; Activity [6]: inactive

Question: With `Cc1cc(=O)c2c(Cc3cc(O)c(Cc4c(O)cc(Cc5cc(O)cc6c5C(=O)CC(C)(O)O6)oc4=O)c(=O)o3)cccc2o1` (configuration not stated) as the compound, how does the Activity [3] read?
Answer: inactive

Question: And the Activity [4]?
Answer: inactive

Question: What about the Activity [5] of the same compound?
Answer: inactive

Question: And the Activity [6]?
Answer: inactive

Question: For `CC(=O)CC(c1c(O)cc(Cc2cccc3oc(C)cc(=O)c23)oc1=O)c1c(O)cc(Cc2cccc3oc(C)cc(=O)c23)oc1=O`, which Activity [3] is on record?
Answer: inactive

Question: What about the Activity [4] of the same compound?
Answer: inactive

Question: What about the Activity [5] of the same compound?
Answer: inactive

Question: What about the Activity [6] of the same compound?
Answer: inactive

Question: For `CC(C)C[C@@H]1C(=O)N([C@H]2C(=O)N[C@@H](CC(N)=O)C(=O)N[C@H]3C(=O)N[C@H]4C(=O)N[C@H](C(=O)N[C@H](C(=O)O)c5cc(O)cc(O)c5-c5cc4ccc5O)[C@H](O)c4ccc(c(Cl)c4)Oc4cc3cc(c4O[C@@H]3O[C@H](CO)[C@@H](O)[C@H](O)[C@H]3O[C@H]3C[C@](C)(N)[C@H](O)[C@H](C)O3)Oc3ccc(cc3Cl)[C@H]2O)CN1C`, which MIC [16] is on record?
Answer: 64 µg/mL (≈ 43.8 µM)

Question: And the MIC [17]?
Answer: 64 µg/mL (≈ 43.8 µM)

Question: Which results are given for `Cc1cc(=O)c2c(Cc3cc(O)c(Cc4c(O)cc(Cc5cc(=O)c6c(C)cc(O)cc6o5)oc4=O)c(=O)o3)cccc2o1`?
Answer: Activity [3]: inactive; Activity [4]: inactive; Activity [5]: inactive; Activity [6]: inactive
